Assay results from patent publication US20230346961A1, “GLP-1 AND GIP RECEPTOR CO-AGONISTS” (Novo Nordisk A/S, priority 2020, published 2023).
Starred links: 1 amine or outer side, 2 acyl side, 3 side chain; linkers in the order of their positions; H or OH if unused. Non-standard residues stand in square brackets, D forms with d. Residues, ends and D or L forms follow the SMILES beside them. Groups on a side chain read outwards from the residue. *: point of attachment. C20 diacid = O=C(O)CCCCCCCCCCCCCCCCCCC(=O)*; γGlu = O=C(O)[C@H](CCC(=O)[*:2])N[*:1]; εLys = N[C@@H](CCCCN[*:1])C(=O)[*:2]; Trx = NC[C@H]1CC[C@H](C(=O)O)CC1; AEEA = NCCOCCOCC(=O)O; Aib = CC(C)(N)C(=O)O

Columns and labels:
human GLP-1 receptor = human GLP-1 receptor (Homo sapiens, UniProt P43220); test: cell-based; conditions: hGLP-1R
mouse GIP receptor = molecular target: T1, mouse GIP receptor (Mus musculus, UniProt Q0P543); test: cell-based
T1 sequence (Q0P543 19-460): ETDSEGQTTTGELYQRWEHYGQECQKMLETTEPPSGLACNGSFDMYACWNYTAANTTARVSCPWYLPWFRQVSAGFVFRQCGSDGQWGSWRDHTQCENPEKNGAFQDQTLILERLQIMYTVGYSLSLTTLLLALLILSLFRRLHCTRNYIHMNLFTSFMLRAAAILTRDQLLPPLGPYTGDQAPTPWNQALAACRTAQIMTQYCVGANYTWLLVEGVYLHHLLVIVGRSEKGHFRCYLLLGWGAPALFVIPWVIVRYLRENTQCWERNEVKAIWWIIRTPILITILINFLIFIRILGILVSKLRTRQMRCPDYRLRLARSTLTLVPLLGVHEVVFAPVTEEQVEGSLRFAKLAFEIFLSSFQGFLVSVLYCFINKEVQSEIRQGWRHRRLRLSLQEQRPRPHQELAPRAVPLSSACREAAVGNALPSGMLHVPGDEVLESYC
Procedure: (§1) The in vitro functional potency is the measure of target receptor activation in a whole cell assay.
(§2) In vitro functional potency was determined by measuring the response of the target receptor in a reporter gene assay in individual cell lines. […] When the respective receptor is activated, it results in the production of cAMP, which in turn results in expression of the luciferase protein. When assay incubation is completed, luciferase substrate (luciferin) is added resulting in the enzymatic conversion of luciferin to oxyluciferin and producing bioluminescence. The luminescence is measured as the readout for the assay.
(§3) The cells lines used in these assays were BHK cells with BHKTS13 as a parent cell line. The cell lines were derived from a clone containing the CRE luciferase element and were established by further transfection with the respective receptor to obtain the relevant cell line.
(§4) The cells were cultured at 37° C. with 5% CO2 in Cell Culture Medium. They were aliquoted and stored in liquid nitrogen. The cells were kept in continuous culture and were seeded out the day before each assay.
(§5) GLP-1R and GcgR Cell Culture Medium consisted of DMEM medium with 10% FBS, 500 μg/mL G418, and 300 μg/mL hygromycin. GIPR Cell Culture Medium consisted of DMEM medium with 10% FBS, 400 μg/mL G418, and 300 μg/mL hygromycin. Assay Buffer consisted of DMEM w/o phenol red, 10 mM Hepes, 1×Glutamax, 1% ovalbumin, and 0.1% Pluronic F-68 with the addition of HSA at twice the final assay concentration.
(§6) • 1) Cells were plated at 5000 cells/well and incubated overnight in the assay plate. • 2) Cells were washed once in DPBS. • 3) Stocks of the test compounds and reference compounds in concentrations ranging from 100-300 μM were diluted 1:150 in Assay Buffer. Compounds were then diluted 1:10 in column 1 of a 96 deep well dilution plate and then carried across the row creating a 3.5 fold, 12 point dilution curve. • 4) Assay Buffer (50 μl aliquot) with or without HSA was added to each well in the assay plate. • 5) A 50 μl aliquot of compound or blank was transferred from the dilution plate to the assay plate containing the Assay Buffer with or without HSA. • 6) The assay plate was incubated for 3 h in a 5% CO2 incubator at 37° C. 7) The cells were washed once with DPBS. • 8) A 100 μl aliquot of DPBS was added to each well of the assay plate. • 9) A 100 μl aliquot of steadylite plus reagent (light sensitive) was added to each well of the assay plate. • 10) Each assay plate was covered with aluminum foil to protect it from light and shaken at 250 RPM for 30 min at room temperature. • 11) Each assay plate was read in a microtiter plate reader.
(§7) The data from the microtiter plate reader was first regressed in an Excel in order to calculate the x-axis, log scale concentrations based on the individual test compound's stock concentration and the dilutions of the assay. […] The software performs a non-linear regression (log(agonist) vs response). A minimum of two replicates was measured for each sample. The reported values are averages of the replicates.

human glucagon receptor = human glucagon receptor (Homo sapiens, UniProt P47871); test: cell-based
Procedure: as §1, §2, §3, §4, §5, §6, §7

mouse GLP-1 receptor = molecular target: T2, mouse GLP-1 receptor (Mus musculus, UniProt O35659)
T2 sequence (O35659 22-463): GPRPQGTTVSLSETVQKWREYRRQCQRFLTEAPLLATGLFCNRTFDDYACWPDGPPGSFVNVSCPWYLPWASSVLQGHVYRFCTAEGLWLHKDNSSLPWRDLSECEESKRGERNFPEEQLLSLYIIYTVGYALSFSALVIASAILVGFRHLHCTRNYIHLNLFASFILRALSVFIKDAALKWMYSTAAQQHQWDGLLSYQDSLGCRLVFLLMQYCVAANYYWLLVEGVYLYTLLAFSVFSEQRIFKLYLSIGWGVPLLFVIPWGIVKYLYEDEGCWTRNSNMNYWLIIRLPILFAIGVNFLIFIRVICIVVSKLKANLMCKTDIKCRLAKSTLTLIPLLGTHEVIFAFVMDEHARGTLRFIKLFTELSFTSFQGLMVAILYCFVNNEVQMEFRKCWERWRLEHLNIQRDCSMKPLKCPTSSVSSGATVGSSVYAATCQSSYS

Sequence of human glucagon receptor (P47871 26-477): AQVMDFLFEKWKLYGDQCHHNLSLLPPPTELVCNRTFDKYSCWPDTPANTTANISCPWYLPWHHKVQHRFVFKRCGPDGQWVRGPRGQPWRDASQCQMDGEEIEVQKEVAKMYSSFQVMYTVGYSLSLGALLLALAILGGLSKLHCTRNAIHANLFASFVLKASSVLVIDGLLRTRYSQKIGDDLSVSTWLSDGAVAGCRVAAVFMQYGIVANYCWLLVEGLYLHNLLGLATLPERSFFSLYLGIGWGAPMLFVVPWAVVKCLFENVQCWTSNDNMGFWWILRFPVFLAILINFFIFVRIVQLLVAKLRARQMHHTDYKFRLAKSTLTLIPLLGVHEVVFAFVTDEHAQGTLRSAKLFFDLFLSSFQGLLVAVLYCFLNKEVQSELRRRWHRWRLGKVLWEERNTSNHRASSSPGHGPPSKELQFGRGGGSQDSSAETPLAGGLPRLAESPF
Sequence of human GLP-1 receptor (P43220 24-463): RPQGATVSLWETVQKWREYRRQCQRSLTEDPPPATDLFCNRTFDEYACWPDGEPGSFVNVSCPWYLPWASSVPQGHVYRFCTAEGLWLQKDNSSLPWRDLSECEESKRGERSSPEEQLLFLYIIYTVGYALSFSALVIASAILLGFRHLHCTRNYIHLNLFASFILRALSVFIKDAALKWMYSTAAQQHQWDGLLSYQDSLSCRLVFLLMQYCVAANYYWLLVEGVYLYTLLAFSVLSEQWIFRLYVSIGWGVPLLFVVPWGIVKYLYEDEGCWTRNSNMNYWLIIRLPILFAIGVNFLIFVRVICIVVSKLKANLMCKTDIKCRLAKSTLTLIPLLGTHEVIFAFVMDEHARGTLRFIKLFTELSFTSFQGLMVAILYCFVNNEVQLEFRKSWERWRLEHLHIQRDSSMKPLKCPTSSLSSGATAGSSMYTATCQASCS

| SMILES | EC50 (human GLP-1 receptor; CRE Luc 0% HSA EC50, 0% HSA) | EC50 (human GLP-1 receptor; CRE Luc 1% HSA EC50, 1% HSA) | EC50 (mouse GIP receptor) | EC50 (human glucagon receptor) | EC50 (mouse GLP-1 receptor) |
| --- | --- | --- | --- | --- | --- |
| CC[C@H](C)[C@H](NC(=O)[C@H](CO)NC(=O)[C@H](Cc1ccc(O)cc1)NC(=O)[C@H](CC(=O)O)NC(=O)[C@H](CO)NC(=O)[C@@H](NC(=O)[C@H](Cc1ccccc1)NC(=O)[C@@H](NC(=O)CNC(=O)[C@H](CCC(=O)O)NC(=O)C(C)(C)NC(=O)[C@@H](N)Cc1ccc(O)cc1)[C@@H](C)O)[C@@H](C)O)C(=O)N[C@@H](Cc1ccc(O)cc1)C(=O)N[C@@H](CC(C)C)C(=O)N[C@@H](CC(=O)O)C(=O)N[C@@H](CCCCN)C(=O)N[C@@H](CCC(N)=O)C(=O)N[C@@H](C)C(=O)N[C@@H](C)C(=O)NC(C)(C)C(=O)N[C@@H](CCCCNC(=O)[C@@H](N)CCCCNC(=O)[C@@H](N)CCCCNC(=O)CC[C@H](NC(=O)[C@H]1CC[C@H](CNC(=O)CCCCCCCCCCCCCCCCCCC(=O)O)CC1)C(=O)O)C(=O)N[C@@H](Cc1ccccc1)C(=O)N[C@H](C(=O)N[C@@H](CC(N)=O)C(=O)N[C@@H](Cc1c[nH]c2ccccc12)C(=O)N[C@@H](CC(C)C)C(=O)N[C@@H](CC(C)C)C(=O)N[C@@H](C)C(=O)NCC(=O)NCC(=O)N1CCC[C@H]1C(=O)N[C@@H](CO)C(=O)N[C@@H](CO)C(=O)NCC(=O)N[C@@H](C)C(=O)N1CCC[C@H]1C(=O)N1CCC[C@H]1C(=O)N1CCC[C@H]1C(=O)N[C@@H](CO)C(N)=O)C(C)C [Compound 14] (H-Y[Aib]EGTFTSDYSIYLDKQAA[Aib]K([εLys-εLys-γGlu-Trx-C20 diacid])FVNWLLAGGPSSGAPPPS-NH2; N-terminus assumed) | 0.0114 nM | 0.377 nM | 0.0186 nM | > 10 nM | 0.006 nM |
| CC[C@H](C)[C@H](NC(=O)[C@H](CO)NC(=O)[C@H](Cc1ccc(O)cc1)NC(=O)[C@H](CC(=O)O)NC(=O)[C@H](CO)NC(=O)[C@@H](NC(=O)[C@H](Cc1ccccc1)NC(=O)[C@@H](NC(=O)CNC(=O)[C@H](CCC(=O)O)NC(=O)C(C)(C)NC(=O)[C@@H](N)Cc1ccc(O)cc1)[C@@H](C)O)[C@@H](C)O)C(=O)N[C@@H](Cc1ccc(O)cc1)C(=O)N[C@@H](CC(C)C)C(=O)N[C@@H](CCC(=O)O)C(=O)N[C@@H](CCCCN)C(=O)N[C@@H](CCC(N)=O)C(=O)N[C@@H](C)C(=O)N[C@@H](C)C(=O)NC(C)(C)C(=O)N[C@@H](CCCCNC(=O)[C@@H](N)CCCCNC(=O)[C@@H](N)CCCCNC(=O)CC[C@H](NC(=O)[C@H]1CC[C@H](CNC(=O)CCCCCCCCCCCCCCCCCCC(=O)O)CC1)C(=O)O)C(=O)N[C@@H](Cc1ccccc1)C(=O)N[C@H](C(=O)N[C@@H](CC(N)=O)C(=O)N[C@@H](Cc1c[nH]c2ccccc12)C(=O)N[C@@H](CC(C)C)C(=O)N[C@@H](CC(C)C)C(=O)N[C@@H](C)C(=O)NCC(=O)NCC(=O)N1CCC[C@H]1C(=O)N[C@@H](CO)C(=O)N[C@@H](CO)C(=O)NCC(=O)N[C@@H](C)C(=O)N1CCC[C@H]1C(=O)N1CCC[C@H]1C(=O)N1CCC[C@H]1C(=O)N[C@@H](CO)C(N)=O)C(C)C [Compound 16] (H-Y[Aib]EGTFTSDYSIYLEKQAA[Aib]K([εLys-εLys-γGlu-Trx-C20 diacid])FVNWLLAGGPSSGAPPPS-NH2; N-terminus assumed) | 0.0061 nM | 0.202 nM | 0.0169 nM | > 10 nM | 0.0035 nM |
| CC[C@H](C)[C@H](NC(=O)[C@H](CO)NC(=O)[C@H](Cc1ccc(O)cc1)NC(=O)[C@H](CC(=O)O)NC(=O)[C@H](CO)NC(=O)[C@@H](NC(=O)[C@H](Cc1ccccc1)NC(=O)[C@@H](NC(=O)CNC(=O)[C@H](CCC(=O)O)NC(=O)C(C)(C)NC(=O)[C@@H](N)Cc1ccc(O)cc1)[C@@H](C)O)[C@@H](C)O)C(=O)N[C@@H](Cc1ccc(O)cc1)C(=O)N[C@@H](CC(C)C)C(=O)N[C@@H](CCC(=O)O)C(=O)N[C@@H](CCCCN)C(=O)N[C@@H](CCC(N)=O)C(=O)N[C@@H](C)C(=O)N[C@@H](C)C(=O)NC(C)(C)C(=O)N[C@@H](CCCCNC(=O)COCCOCCNC(=O)COCCOCCNC(=O)CC[C@H](NC(=O)[C@H]1CC[C@H](CNC(=O)CCCCCCCCCCCCCCCCCCC(=O)O)CC1)C(=O)O)C(=O)N[C@@H](Cc1ccccc1)C(=O)N[C@H](C(=O)N[C@@H](CC(N)=O)C(=O)N[C@@H](Cc1c[nH]c2ccccc12)C(=O)N[C@@H](CC(C)C)C(=O)N[C@@H](CC(C)C)C(=O)N[C@@H](C)C(=O)NCC(=O)NCC(=O)N1CCC[C@H]1C(=O)N[C@@H](CO)C(=O)N[C@@H](CO)C(=O)NCC(=O)N[C@@H](C)C(=O)N1CCC[C@H]1C(=O)N1CCC[C@H]1C(=O)N1CCC[C@H]1C(=O)N[C@@H](CO)C(N)=O)C(C)C [Compound 17] (H-Y[Aib]EGTFTSDYSIYLEKQAA[Aib]K([AEEA-AEEA-γGlu-Trx-C20 diacid])FVNWLLAGGPSSGAPPPS-NH2; N-terminus assumed) | 0.0041 nM | 0.229 nM | 0.0219 nM | > 10 nM | 0.0023 nM |
| CC[C@H](C)[C@H](NC(=O)[C@H](CO)NC(=O)[C@H](Cc1ccc(O)cc1)NC(=O)[C@H](CC(=O)O)NC(=O)[C@H](CO)NC(=O)[C@@H](NC(=O)[C@H](Cc1ccccc1)NC(=O)[C@@H](NC(=O)CNC(=O)[C@H](CCC(=O)O)NC(=O)C(C)(C)NC(=O)[C@@H](N)Cc1ccc(O)cc1)[C@@H](C)O)[C@@H](C)O)C(=O)N[C@@H](Cc1ccc(O)cc1)C(=O)N[C@@H](CC(C)C)C(=O)N[C@@H](CCC(=O)O)C(=O)N[C@@H](CCCCN)C(=O)N[C@@H](CCCCNC(=O)[C@@H](N)CCCCNC(=O)[C@@H](N)CCCCNC(=O)CC[C@H](NC(=O)[C@H]1CC[C@H](CNC(=O)CCCCCCCCCCCCCCCCCCC(=O)O)CC1)C(=O)O)C(=O)N[C@@H](C)C(=O)N[C@@H](C)C(=O)NC(C)(C)C(=O)N[C@@H](CCC(=O)O)C(=O)N[C@@H](Cc1ccccc1)C(=O)N[C@H](C(=O)N[C@@H](CC(N)=O)C(=O)N[C@@H](Cc1c[nH]c2ccccc12)C(=O)N[C@@H](CC(C)C)C(=O)N[C@@H](CC(C)C)C(=O)N[C@@H](C)C(=O)NCC(=O)NCC(=O)N1CCC[C@H]1C(=O)N[C@@H](CO)C(=O)N[C@@H](CO)C(=O)NCC(=O)N[C@@H](C)C(=O)N1CCC[C@H]1C(=O)N1CCC[C@H]1C(=O)N1CCC[C@H]1C(=O)N[C@@H](CO)C(N)=O)C(C)C [Compound 23] (H-Y[Aib]EGTFTSDYSIYLEKK([εLys-εLys-γGlu-Trx-C20 diacid])AA[Aib]EFVNWLLAGGPSSGAPPPS-NH2; N-terminus assumed) | 0.004 nM | 0.178 nM | 0.0175 nM | > 10 nM | 0.0037 nM |
| CC[C@H](C)[C@H](NC(=O)[C@H](CO)NC(=O)[C@H](Cc1ccc(O)cc1)NC(=O)[C@H](CC(=O)O)NC(=O)[C@H](CO)NC(=O)[C@@H](NC(=O)[C@H](Cc1ccccc1)NC(=O)[C@@H](NC(=O)CNC(=O)[C@H](CCC(=O)O)NC(=O)C(C)(C)NC(=O)[C@@H](N)Cc1ccc(O)cc1)[C@@H](C)O)[C@@H](C)O)C(=O)N[C@@H](Cc1ccc(O)cc1)C(=O)N[C@@H](CC(C)C)C(=O)N[C@@H](CCC(=O)O)C(=O)N[C@@H](CCCCN)C(=O)N[C@@H](CCC(N)=O)C(=O)N[C@@H](C)C(=O)N[C@@H](C)C(=O)NC(C)(C)C(=O)N[C@@H](CCCCNC(=O)[C@@H](N)CCCCNC(=O)[C@@H](N)CCCCNC(=O)CC[C@H](NC(=O)[C@H]1CC[C@H](CNC(=O)CCCCCCCCCCCCCCCCCCC(=O)O)CC1)C(=O)O)C(=O)N[C@@H](Cc1ccccc1)C(=O)N[C@H](C(=O)N[C@@H](CCC(N)=O)C(=O)N[C@@H](Cc1c[nH]c2ccccc12)C(=O)N[C@@H](CC(C)C)C(=O)N[C@@H](CC(C)C)C(=O)N[C@@H](CCC(=O)O)C(=O)NCC(=O)NCC(=O)N1CCC[C@H]1C(=O)N[C@@H](CO)C(=O)N[C@@H](CO)C(=O)NCC(=O)N[C@@H](C)C(=O)N1CCC[C@H]1C(=O)N1CCC[C@H]1C(=O)N1CCC[C@H]1C(=O)N[C@@H](CO)C(N)=O)C(C)C [Compound 24] (H-Y[Aib]EGTFTSDYSIYLEKQAA[Aib]K([εLys-εLys-γGlu-Trx-C20 diacid])FVQWLLEGGPSSGAPPPS-NH2; N-terminus assumed) | 0.0047 nM | 0.114 nM | 0.0405 nM | > 10 nM | 0.0099 nM |
